Assay results published in patent KR20200071421A, “왕귀뚜라미에서 유래한 항균 펩타이드 테레오그릴루신 3 및 그의 조성물” (대한민국(농촌진흥청장), priority 2018, dated 2020).
Peptide text beside a SMILES is read from it.

System: rat erythrocytes
Experiment: Cytotoxicity to rat erythrocytes (hemolysis, absorbance 550 nm)
Type: cell-based
Conditions: for % 렛 적혈구 파괴능: 37 ℃, 30 min, 0.1 % Triton X-100 = 100 %

SMILES	% 렛 적혈구 파괴능 (12.5 ㎍/ml peptide)	% 렛 적혈구 파괴능 (25 ㎍/ml peptide)	% 렛 적혈구 파괴능 (50 ㎍/ml peptide)	% 렛 적혈구 파괴능 (100 ㎍/ml peptide)	% 렛 적혈구 파괴능 (200 ㎍/ml peptide)	erythrocyte lysis, result in words (concentrations up to 200 ㎍/ml)	cytotoxicity to erythrocytes, result in words (even at low concentrations)
CC[C@H](C)[C@H](NC(=O)[C@H](Cc1ccccc1)NC(=O)[C@H](Cc1ccccc1)NC(=O)[C@H](CC(C)C)NC(=O)[C@H](CCCCN)NC(=O)[C@H](CC(N)=O)NC(=O)[C@H](CCCCN)NC(=O)[C@H](Cc1c[nH]c2ccccc12)NC(=O)[C@H](Cc1ccccc1)NC(=O)[C@@H](N)CCSC)C(=O)N[C@H](C(=O)N[C@@H](CCCCN)C(=O)N[C@@H](CCCCN)C(N)=O)C(C)C [Teleogryllusine 3, MFWKNKLFFIVKK-NH2] (H-MFWKNKLFFIVKK-NH2)	0%	0.09%	0.28%	0%	1.22%	파괴능이 미미함	–
CC[C@H](C)[C@H](NC(=O)CN)C(=O)NCC(=O)N[C@@H](C)C(=O)N[C@H](C(=O)N[C@@H](CC(C)C)C(=O)N[C@@H](CCCCN)C(=O)N[C@H](C(=O)N[C@@H](CC(C)C)C(=O)N[C@H](C(=O)N[C@H](C(=O)NCC(=O)N[C@@H](CC(C)C)C(=O)N1CCC[C@H]1C(=O)N[C@@H](C)C(=O)N[C@@H](CC(C)C)C(=O)N[C@H](C(=O)N[C@@H](CO)C(=O)N[C@@H](Cc1c[nH]c2ccccc12)C(=O)N[C@H](C(=O)N[C@@H](CCCCN)C(=O)N[C@@H](CCCNC(=N)N)C(=O)N[C@@H](CCCCN)C(=O)N[C@@H](CCCNC(=N)N)C(=O)N[C@@H](CCC(N)=O)C(=O)N[C@@H](CCC(N)=O)C(N)=O)[C@@H](C)CC)[C@@H](C)CC)[C@@H](C)O)[C@@H](C)O)C(C)C)C(C)C [멜리틴]	75.8%	83.1%	89.8%	88.3%	91.4%	–	높은 세포 독성
